“And” between values parts separate entries of the source, which are not always exact repeats. Equal values may be shown once.
Test system: skin
Test: Affymetrix microarray of skin, DBP-4 hr and analogs vs. untreated; gene selection by log-2 fold change, Wilcoxon, Kendall tau (Tables 8, 9)
Format: in vivo, mouse
Conditions: mouse, in vivo

Question: How did the “AY026312 NM_133359_at ≧2-Fold change” value turn out when CCCCOC(=O)c1ccccc1C(=O)OCCCC [DBP, dibutylphthalate] was run?
Answer: The value was “No”.

Question: What about the “Abcc3 (NM_029600_at) ≧2-Fold change” value of the same molecule?
Answer: The value was “Yes”.

Question: What about the “Acot5 (NM_145444_at) ≧2-Fold change” value of the same molecule?
Answer: Its value is “Yes”.

Question: What about the “Actn2 NM_033268_at ≧2-Fold change” value of the same molecule?
Answer: Its value is “No”.

Question: What about the “Adamts4 (NM_172845_at) ≧2-Fold change” value of the same molecule?
Answer: The value was “Yes”.

Question: What about the “Akap12 (NM_031185_at) ≧2-Fold change” value of the same molecule?
Answer: The value was “Yes”.

Question: And the “Akr1c14 NM_134072_at ≧2-Fold change” value?
Answer: The value was “No”.

Question: And the “Aldh7a1 NM_001127338_at ≧2-Fold change” value?
Answer: Its value is “No”.

Question: And the “Angptl4 (NM_020581_at) ≧2-Fold change” value?
Answer: Its value is “Yes”.

Question: What about the “Aox4 NM_023631_at ≧2-Fold change” value of the same molecule?
Answer: The value was “No”.

Question: And the “Arc (NM_018790_at) ≧2-Fold change” value?
Answer: Its value is “Yes”.

Question: And the “Arid5a (NM_145996_at) ≧2-Fold change” value?
Answer: Its value is “Yes”.

Question: And the “Arid5a (NR_033310_at) ≧2-Fold change” value?
Answer: The value was “Yes”.

Question: What about the “Asb5 NM_029569_at ≧2-Fold change” value of the same molecule?
Answer: The value was “No”.

Question: And the “Atp2a2 NM_001110140_at ≧2-Fold change” value?
Answer: The value was “No”.

Question: And the “Atp13a3 NM_001128094_at ≧2-Fold change” value?
Answer: Its value is “No”.

Question: And the “Atp13a3 NM_001128096_at ≧2-Fold change” value?
Answer: The value was “No”.

Question: What about the “Bcar3 (NM_013867_at) ≧2-Fold change” value of the same molecule?
Answer: Its value is “Yes”.

Question: What about the “Bcl3 (NM_033601_at) ≧2-Fold change” value of the same molecule?
Answer: The value was “Yes”.

Question: And the “Bcr NM_001081412_at ≧2-Fold change” value?
Answer: Its value is “No”.

Question: And the “Bhlhe40 (NM_011498_at) ≧2-Fold change” value?
Answer: The value was “Yes”.

Question: What about the “Calcb (NM_054084_at) ≧2-Fold change” value of the same molecule?
Answer: The value was “Yes”.

Question: What about the “Camk2g NM_001039138_at ≧2-Fold change” value of the same molecule?
Answer: Its value is “No”.

Question: What about the “Camk2g NM_001039139_at ≧2-Fold change” value of the same molecule?
Answer: The value was “No”.

Question: What about the “Ccl1 (NM_011329_at) ≧2-Fold change” value of the same molecule?
Answer: The value was “Yes”.

Question: What about the “Ccl2 (NM_011333_at) ≧2-Fold change” value of the same molecule?
Answer: The value was “Yes”.

Question: And the “Ccl3 (NM_011337_at) ≧2-Fold change” value?
Answer: The value was “Yes”.

Question: What about the “Ccl7 (NM_013654_at) ≧2-Fold change” value of the same molecule?
Answer: Its value is “Yes”.

Question: And the “Ccl8 NM_021443_at ≧2-Fold change” value?
Answer: The value was “No”.

Question: And the “Ccl9 (NM_011338_at) ≧2-Fold change” value?
Answer: The value was “Yes”.

Question: And the “Ccl12 (NM_011331_at) ≧2-Fold change” value?
Answer: The value was “Yes”.

Question: What about the “Ccl17 (NM_011332_at) ≧2-Fold change” value of the same molecule?
Answer: The value was “Yes”.

Question: What about the “Ccl20 (NM_016960_at) ≧2-Fold change” value of the same molecule?
Answer: Its value is “Yes”.

Question: And the “Ccl24 NM_019577_at ≧2-Fold change” value?
Answer: The value was “No”.

Question: What about the “Cd86 (NM_019388_at) ≧2-Fold change” value of the same molecule?
Answer: Its value is “Yes”.

Question: And the “Cd207 (NM_144943_at) ≧2-Fold change” value?
Answer: Its value is “Yes”.

Question: What about the “Cd209d NM_130904_at ≧2-Fold change” value of the same molecule?
Answer: The value was “No”.

Question: And the “Ckmt2 NM_198415_at ≧2-Fold change” value?
Answer: Its value is “No”.

Question: What about the “Cldn8 NM_018778_at ≧2-Fold change” value of the same molecule?
Answer: Its value is “No”.

Question: And the “Clec4e (NM_019948_at) ≧2-Fold change” value?
Answer: Its value is “Yes”.

Question: And the “Clec4n NM_020001_at ≧2-Fold change” value?
Answer: The value was “No”.

Question: And the “Clec7a (NM_020008_at) ≧2-Fold change” value?
Answer: The value was “Yes”.

Question: And the “Clec4d (NM_010819_at) ≧2-Fold change” value?
Answer: The value was “Yes”.

Question: What about the “Clic4 (NM_013885_at) ≧2-Fold change” value of the same molecule?
Answer: The value was “Yes”.

Question: What about the “Cmya5 NM_023821_at ≧2-Fold change” value of the same molecule?
Answer: The value was “No”.

Question: And the “Comp NM_016685_at ≧2-Fold change” value?
Answer: The value was “No”.

Question: And the “Corin NM_016869_at ≧2-Fold change” value?
Answer: The value was “No”.

Question: What about the “Crem (NM_013498_at) ≧2-Fold change” value of the same molecule?
Answer: Its value is “Yes”.

Question: And the “Crispld1 NM_031402_at ≧2-Fold change” value?
Answer: The value was “No”.

Question: What about the “Cxcl10 NM_021274_at ≧2-Fold change” value of the same molecule?
Answer: The value was “No”.

Question: And the “Cxcl16 (NM_023158_at) ≧2-Fold change” value?
Answer: The value was “Yes”.

Question: And the “Cxcr6 NM_030712_at ≧2-Fold change” value?
Answer: Its value is “No”.

Question: What about the “Cyr61 (NM_010516_at) ≧2-Fold change” value of the same molecule?
Answer: Its value is “Yes”.

Question: And the “Cyth1 NM_001112699_at ≧2-Fold change” value?
Answer: The value was “No”.

Question: What about the “Cyth1 NM_001112700_at ≧2-Fold change” value of the same molecule?
Answer: Its value is “No”.

Question: And the “Cytip (NM_139200_at) ≧2-Fold change” value?
Answer: Its value is “Yes”.

Question: And the “DBP LogFold-Change Versus-Untreated: 1600029D21Rik” value?
Answer: The value was 1.52.

Question: What about the “DBP LogFold-Change Versus-Untreated: 1810055G02Rik” value of the same molecule?
Answer: The value was 0.89.

Question: What about the “DBP LogFold-Change Versus-Untreated: 5730408K05Rik” value of the same molecule?
Answer: Its value is 0.91.

Question: What about the “DBP LogFold-Change Versus-Untreated: 1810011010Rik” value of the same molecule?
Answer: The value was 1.53.

Question: And the “DBP LogFold-Change Versus-Untreated: Abcc3” value?
Answer: Its value is 1.09.

Question: And the “DBP LogFold-Change Versus-Untreated: Adam8” value?
Answer: The value was 1.94.

Question: And the “DBP LogFold-Change Versus-Untreated: Adamts4” value?
Answer: Its value is 1.41.

Question: What about the “DBP LogFold-Change Versus-Untreated: Angptl4” value of the same molecule?
Answer: Its value is 2.61.

Question: And the “DBP LogFold-Change Versus-Untreated: Aqp3” value?
Answer: The value was 0.89.

Question: And the “DBP LogFold-Change Versus-Untreated: Arc” value?
Answer: Its value is 1.90.

Question: And the “DBP LogFold-Change Versus-Untreated: Arid5a” value?
Answer: The value was 1.49.

Question: And the “DBP LogFold-Change Versus-Untreated: Bcar3” value?
Answer: Its value is 1.08.

Question: And the “DBP LogFold-Change Versus-Untreated: Bcl3” value?
Answer: Its value is 2.56.

Question: What about the “DBP LogFold-Change Versus-Untreated: Bhlhe40” value of the same molecule?
Answer: Its value is 1.26.

Question: And the “DBP LogFold-Change Versus-Untreated: Birc3” value?
Answer: Its value is 1.02.

Question: What about the “DBP LogFold-Change Versus-Untreated: Btg2” value of the same molecule?
Answer: The value was 1.56.

Question: What about the “DBP LogFold-Change Versus-Untreated: Ccl2” value of the same molecule?
Answer: The value was 3.23.

Question: What about the “DBP LogFold-Change Versus-Untreated: Ccl7” value of the same molecule?
Answer: Its value is 3.11.

Question: What about the “DBP LogFold-Change Versus-Untreated: Ccl12” value of the same molecule?
Answer: Its value is 3.10.

Question: What about the “DBP LogFold-Change Versus-Untreated: Ccl20” value of the same molecule?
Answer: The value was 5.93.

Question: What about the “DBP LogFold-Change Versus-Untreated: Ccrn4l” value of the same molecule?
Answer: The value was 1.75.

Question: And the “DBP LogFold-Change Versus-Untreated: Cd44” value?
Answer: Its value is 1.31.

Question: And the “DBP LogFold-Change Versus-Untreated: Cd86” value?
Answer: Its value is 1.73.

Question: What about the “DBP LogFold-Change Versus-Untreated: Cd207” value of the same molecule?
Answer: The value was 1.42.

Question: What about the “DBP LogFold-Change Versus-Untreated: Cebpd” value of the same molecule?
Answer: The value was 1.58.

Question: What about the “DBP LogFold-Change Versus-Untreated: Ch25h” value of the same molecule?
Answer: Its value is 1.91.

Question: What about the “DBP LogFold-Change Versus-Untreated: Cirh1a” value of the same molecule?
Answer: Its value is 0.79.

Question: And the “DBP LogFold-Change Versus-Untreated: Cish” value?
Answer: The value was 1.12.

Question: What about the “DBP LogFold-Change Versus-Untreated: Clec7a” value of the same molecule?
Answer: Its value is 2.09.

Question: And the “DBP LogFold-Change Versus-Untreated: Clic4” value?
Answer: Its value is 1.12.

Question: What about the “DBP LogFold-Change Versus-Untreated: Coro2a” value of the same molecule?
Answer: Its value is 0.88.

Question: What about the “DBP LogFold-Change Versus-Untreated: Crem” value of the same molecule?
Answer: Its value is 1.29 and 1.23.

Question: What about the “DBP LogFold-Change Versus-Untreated: Csf2rb” value of the same molecule?
Answer: The value was 1.11.

Source: US20150307938A1, “METHOD TO IDENTIFY A NOVEL CLASS OF IMMUNOLOGIC ADJUVANTS” (Lancell, L.L.C., priority 2011, published 2015)
